{"source": "patent US6479533B1", "about": "“Methods and compositions for the protection of mitochondria” (priority 1997, dated 2002)", "assay_type_in_all_cases": "cell-based", "key": {"[1]": {"system": "mitochondria in mouse keratinocytes", "test": "MTT assay after UV-B irradiation", "text": "Mouse keratinocytes were pretreated with different concentrations of L-ergothioneine (unencapsulated) and then exposed to ultraviolet B radiation (UV-B), the shorter wavelength range of UV light present in sunlight which is responsible for significant photodamage to the skin. The light was generated by a FS20 sunlamp filtered with 2 sheets of Kodacel to eliminate light having a wavelength less than 280 nm.\n(§1) This assay measures the specific activity of mitochondria to cleave the tetrazolium ring of the soluble dye MTT [3-(4,5-dimethylthiazol-2-yl)-2,5-diphenyl tetrazolium bromide] to form the insoluble blue formazan form. Living mitochondria metabolize MTT and make the blue formazan; dead mitochondria immediately stop forming blue formazan. In the MTT assay, mammalian cells are pretreated with L-ergothioneine and then treated with the mitochondrial damaging agent, in this example UV-B. MTT is then added and the formation of the blue dye is measured spectrophotometrically.\nTable I provides the percent optical density of the formazan blue present relative to unexposed (control) mitochondria in cells for various UV-B levels, expressed as joules per square meter, and L-ergothioneine concentrations.\nMouse keratinocytes were pretreated with L-ergothioneine, both unencapsulated and encapsulated in liposomes (prepared as described below), at a final concentration of 12.5 μM. A control group was not treated with L-ergothioneine. The mouse keratinocytes were then exposed to UV-B as in Example I.\nThe L-ergothioneine was encapsulated into liposomes composed of phosphatidyl choline, phosphatidyl ethanolamine, oleic acid and cholesteryl hemisuccinate in a ratio of 2:2:1:5. To calculate the concentration of entrapped L-ergothioneine, the liposomes are extracted with chloroform, and the OD258 is measured in the aqueous layer. The concentration of L-ergothioneine is calculated using the ε258 of L-ergothioneine of 14,500. The final concentration of L-ergothioneine in the purified liposome was about 1.1 mM. […] Unencapsulated L-ergothioneine was adjusted to the same concentration by dilution.\nThe effect of the UV-B on the pretreated and untreated mitochondria was determined by the MTT assay as in Example 1.\nTable 3 provides the percent optical density of the formazan blue present in each case relative to unexposed (control) mitochondria in cells for various UV-B levels."}, "[2]": {"system": "mitochondria in mouse keratinocytes", "test": "MTT assay after alloxan exposure", "text": "as §1\nMouse keratinocytes were pretreated with various concentrations of L-ergothioneine (unencapsulated) and then exposed to alloxan at various concentrations.\nThe effect of alloxan on the pretreated mitochondria was determined by the MTT assay as in Example 1.\nTable 2 provides the percent optical densities of the formazan blue present relative to unexposed (control) mitochondria in cells for various alloxan concentrations, and L-ergothioneine concentrations."}, "[3]": {"system": "mitochondrial membranes in mouse keratinocytes", "test": "JC-1 assay (fluorescence microscopy) after alloxan", "method": "Mouse keratinocytes were pretreated with L-ergothioneine (unencapsulated) at 1 mM and then treated with 8 mM alloxan. One day after treatment with L-ergothioneine, the cells were treated for 10 minutes with JC-I and the cells examined by fluorescence microscopy.\nThe JC-1 assay makes use of the fluorescent dye JC-1 (5,5′, 6,6′-tetrachloro-1, 1′, 3,3′-tetrathylbenzimidazolecarbocyanine iodide) (Molecular Probes Inc., Eugene, OR). This dye immediately and specifically intercalates into mitochondrial membranes. In living, charged membranes the JC-1 dye is maintained in the membrane as a […], and fluoresces green. When the mitochondrial membrane is damaged, aggregation of the JC-1 dye into J-1 aggregates occurs and the fluorescence changes to orange. Orange coloration is then characteristic of mitochondrial membrane damage."}}}
{"smiles": "C[N+](C)(C)[C@@H](Cc1c[nH]c(=S)[nH]1)C(=O)[O-]", "note": "[L-ergothioneine]", "values": [{"measurement": "protection of mitochondria from UV-B damage", "setting": "[1]; 12.5 μM, UV-B 100 and 500 J/m^2", "result": "significant but not complete protection"}, {"measurement": "percent optical density of formazan blue relative to unexposed (control) mitochondria", "setting": "[1]; 0.1 mM L-ergothioneine, UV-B 0 J/m^2", "result": 100.0, "unit": "%"}, {"measurement": "percent optical density of formazan blue relative to unexposed (control) mitochondria", "setting": "[1]; 0.1 mM L-ergothioneine, UV-B 100 J/m^2", "result": 95.7, "unit": "%"}, {"measurement": "percent optical density of formazan blue relative to unexposed (control) mitochondria", "setting": "[1]; 0.1 mM L-ergothioneine, UV-B 200 J/m^2", "result": 97.0, "unit": "%"}, {"measurement": "percent optical density of formazan blue relative to unexposed (control) mitochondria", "setting": "[1]; 0.1 mM L-ergothioneine, UV-B 500 J/m^2", "result": 91.0, "unit": "%"}, {"measurement": "percent optical density of formazan blue relative to unexposed (control) mitochondria", "setting": "[1]; 0.5 mM L-ergothioneine, UV-B 100 J/m^2", "result": 97.2, "unit": "%"}, {"measurement": "percent optical density of formazan blue relative to unexposed (control) mitochondria", "setting": "[1]; 0.5 mM L-ergothioneine, UV-B 200 J/m^2", "result": 99.4, "unit": "%"}, {"measurement": "percent optical density of formazan blue relative to unexposed (control) mitochondria", "setting": "[1]; 0.5 mM L-ergothioneine, UV-B 500 J/m^2", "result": 90.8, "unit": "%"}, {"measurement": "percent optical density of formazan blue relative to unexposed (control) mitochondria", "setting": "[1]; 1 mM L-ergothioneine, UV-B 0 J/m^2", "result": 100.0, "unit": "%"}, {"measurement": "percent optical density of formazan blue relative to unexposed (control) mitochondria", "setting": "[1]; 1 mM L-ergothioneine, UV-B 100 J/m^2", "result": 97.1, "unit": "%"}, {"measurement": "percent optical density of formazan blue relative to unexposed (control) mitochondria", "setting": "[1]; 1 mM L-ergothioneine, UV-B 200 J/m^2", "result": 103.9, "unit": "%"}, {"measurement": "percent optical density of formazan blue relative to unexposed (control) mitochondria", "setting": "[1]; 1 mM L-ergothioneine, UV-B 500 J/m^2", "result": 96.0, "unit": "%"}, {"measurement": "mitochondrial viability", "setting": "[1]; UV-B 100 and 200 J/m^2, all three levels of L-ergothioneine (0.1, 0.5, 1 mM)", "result": "greater than 95%"}, {"measurement": "protection of mitochondria", "setting": "[1]; highest UV-B dose (500 J/m^2)", "result": "still protected the mitochondria"}, {"measurement": "percent optical density of formazan blue relative to unexposed (control) mitochondria", "setting": "[1]; unencapsulated, 12.5 μM, UV-B 0 J/m^2", "result": 100.0, "unit": "%"}, {"measurement": "percent optical density of formazan blue relative to unexposed (control) mitochondria", "setting": "[1]; unencapsulated, 12.5 μM, UV-B 100 J/m^2", "result": 89.9, "unit": "%"}, {"measurement": "percent optical density of formazan blue relative to unexposed (control) mitochondria", "setting": "[1]; unencapsulated, 12.5 μM, UV-B 500 J/m^2", "result": 89.9, "unit": "%"}, {"measurement": "concentration at which active (protection from UV-B)", "setting": "[1]; unencapsulated, UV-B 100 and 500 J/m^2", "result": "≤ 12.5", "unit": "µM"}, {"measurement": "percent optical density of formazan blue relative to unexposed (control) mitochondria", "setting": "[2]; 0.1 mM L-ergothioneine, alloxan 0 mM", "result": 100.0, "unit": "%"}, {"measurement": "percent optical density of formazan blue relative to unexposed (control) mitochondria", "setting": "[2]; 0.1 mM L-ergothioneine, alloxan 0.625 mM", "result": 86.3, "unit": "%"}, {"measurement": "percent optical density of formazan blue relative to unexposed (control) mitochondria", "setting": "[2]; 0.1 mM L-ergothioneine, alloxan 1.25 mM", "result": 80.8, "unit": "%"}, {"measurement": "percent optical density of formazan blue relative to unexposed (control) mitochondria", "setting": "[2]; 0.1 mM L-ergothioneine, alloxan 2.5 mM", "result": 81.1, "unit": "%"}, {"measurement": "percent optical density of formazan blue relative to unexposed (control) mitochondria", "setting": "[2]; 0.1 mM L-ergothioneine, alloxan 5 mM", "result": 73.3, "unit": "%"}, {"measurement": "percent optical density of formazan blue relative to unexposed (control) mitochondria", "setting": "[2]; 0.1 mM L-ergothioneine, alloxan 10 mM", "result": 74.9, "unit": "%"}, {"measurement": "percent optical density of formazan blue relative to unexposed (control) mitochondria", "setting": "[2]; 0.1 mM L-ergothioneine, alloxan 20 mM", "result": 79.1, "unit": "%"}, {"measurement": "percent optical density of formazan blue relative to unexposed (control) mitochondria", "setting": "[2]; 0.5 mM L-ergothioneine, alloxan 0 mM", "result": 100.0, "unit": "%"}, {"measurement": "percent optical density of formazan blue relative to unexposed (control) mitochondria", "setting": "[2]; 0.5 mM L-ergothioneine, alloxan 0.625 mM", "result": 88.3, "unit": "%"}, {"measurement": "percent optical density of formazan blue relative to unexposed (control) mitochondria", "setting": "[2]; 0.5 mM L-ergothioneine, alloxan 1.25 mM", "result": 81.0, "unit": "%"}, {"measurement": "percent optical density of formazan blue relative to unexposed (control) mitochondria", "setting": "[2]; 0.5 mM L-ergothioneine, alloxan 2.5 mM", "result": 81.0, "unit": "%"}, {"measurement": "percent optical density of formazan blue relative to unexposed (control) mitochondria", "setting": "[2]; 0.5 mM L-ergothioneine, alloxan 5 mM", "result": 73.3, "unit": "%"}, {"measurement": "percent optical density of formazan blue relative to unexposed (control) mitochondria", "setting": "[2]; 0.5 mM L-ergothioneine, alloxan 10 mM", "result": 74.1, "unit": "%"}, {"measurement": "percent optical density of formazan blue relative to unexposed (control) mitochondria", "setting": "[2]; 0.5 mM L-ergothioneine, alloxan 20 mM", "result": 78.4, "unit": "%"}, {"measurement": "percent optical density of formazan blue relative to unexposed (control) mitochondria", "setting": "[2]; 0.5 mM L-ergothioneine, alloxan 40 mM", "result": 72.3, "unit": "%"}, {"measurement": "percent optical density of formazan blue relative to unexposed (control) mitochondria", "setting": "[2]; 1 mM L-ergothioneine, alloxan 0 mM", "result": 100.0, "unit": "%"}, {"measurement": "percent optical density of formazan blue relative to unexposed (control) mitochondria", "setting": "[2]; 1 mM L-ergothioneine, alloxan 0.625 mM", "result": 91.2, "unit": "%"}, {"measurement": "percent optical density of formazan blue relative to unexposed (control) mitochondria", "setting": "[2]; 1 mM L-ergothioneine, alloxan 1.25 mM", "result": 86.5, "unit": "%"}, {"measurement": "percent optical density of formazan blue relative to unexposed (control) mitochondria", "setting": "[2]; 1 mM L-ergothioneine, alloxan 2.5 mM", "result": 82.9, "unit": "%"}, {"measurement": "percent optical density of formazan blue relative to unexposed (control) mitochondria", "setting": "[2]; 1 mM L-ergothioneine, alloxan 10 mM", "result": 68.5, "unit": "%"}, {"measurement": "percent optical density of formazan blue relative to unexposed (control) mitochondria", "setting": "[2]; 1 mM L-ergothioneine, alloxan 20 mM", "result": 72.7, "unit": "%"}, {"measurement": "percent optical density of formazan blue relative to unexposed (control) mitochondria", "setting": "[2]; 1 mM L-ergothioneine, alloxan 40 mM", "result": 66.6, "unit": "%"}, {"measurement": "protection from oxidative damage by alloxan", "setting": "[2]; dose-responsive portion of the curve (alloxan up to 5 mM)", "result": "afforded protection from oxidative damage"}, {"measurement": "JC-1 fluorescence colour (orange = mitochondrial membrane damage)", "setting": "[3]; 1 mM L-ergothioneine alone, no alloxan", "result": "green fluorescence"}, {"measurement": "JC-1 fluorescence colour (orange = mitochondrial membrane damage)", "setting": "[3]; 1 mM L-ergothioneine pretreatment, then 8 mM alloxan", "result": "much less orange than cells treated with alloxani alone"}]}
